In brackets after ≈: the same amount, converted by molar mass. Several values for one entry are separate records, joined by “and”; a condition that tells them apart may be missing. Equal entries are not always repeated. Where two headings read alike, the source gives them in different places.
Assays:
Jack Bean Urease = Jack Bean Urease (Canavalia ensiformis, UniProt P07374); assay: biochemical; conditions: for % inhibition: urease
Experimental: Urease inhibitory potential for each synthesisized compound (T1–T20) was evaluated using Jack Bean Urease by Indophenol method (Table 5, Figs. 9, 10, 11). 250 µl of jack bean urease (4U) was mixed with 250 µl of different synthesized test compounds and standard of different concentrations [dissolved in DMSO/H2O mixture (1:1 v/v)]. The mixture was pre-incubated for 1 h at 37 °C in test tubes. 2 ml of 100 mM phosphate buffer (pH 6.8) containing 500 mM urea and 0.002% phenol red as an indicator were added in sample test tubes after pre incubation and again incubated at room temperature. Absorbance of reaction mixture was recorded by ELISA at 570 nm. Ammonium carbonate increased the pH of phosphate buffer from 6.8 to 7.7 which was produced from urea by urease enzyme and the end peak was measured by the colour of phenol red indicator [16].
The percentage inhibition of urease enzyme was calculated by using following formula: I%=Acontrol-Asample/Acontrol×100,
where Acontrol is the absorbance of the control; Asample is the absorbance of the test compound.

[1] = test system: HCT116 (human colon cancer cells); assay: Anticancer evaluation, SRB assay; format: cell-based
Experimental: HCT116 (human colon cancer cells) were seeded at 2500 cells/well (96 well plate), allowed to attach overnight, exposed to the respective compounds for 72 h and subjected to SRB assay (570 nm). Data represent mean IC50 of at least triplicates. The compounds were all dissolved in DMSO as stock of 100 mg/ml. […] The highest concentration of each compound tested (100 μg/ml) contained only 0.1% DMSO.

[2] = DPPH free radical scavenging activity; conditions: for IC50: DPPH antioxidant; for % inhibition: DPPH
Experimental: In the DPPH free radical scavenging activity, compounds (T1–T20) were evaluated for their free radical scavenging activity with ascorbic acid as standard compound. The scavenging effect increased with the increasing concentrations of sample compounds. DPPH is relatively stable nitrogen centered free radical that easily accepts an electron or hydrogen radical to become a stable diamagnetic molecule. DPPH radicals react with suitable reducing agents as a result of which the electrons become paired off forming the corresponding hydrazine. The solution therefore loses colour stoichometrically depending on the number of electrons taken up. […] The sample solutions were incubated for 30 min at room temperature in dark place and after then absorbance was recorded against the blank solution at 517 nm. The relative percent of DPPH scavenging activity was calculated according to the following equation: I%=Acontrol-Asample/Acontrol×100,
where Acontrol is the absorbance of the control, Asample is the absorbance of the test compound.

Bacillus subtilis = assay: In vitro antimicrobial screening, tube dilution method; format: cell-based; conditions: B. substilis, Gram +ve, nutrient broth, 37 ± 1 °C, 24 h, read-out: Minimum inhibitory concentration
Experimental: (§1) The in vitro antimicrobial screening of the synthesized 1,2,4-triazole derivatives (T1–T20) in μM was determined against Gram-positive Bacillus subtilis, […], Gram-negative Escherichia coli bacterium and fungal strains Candida albicans and Aspergillus niger by tube dilution method using ciprofloxacin, amoxycillin (antibacterial) and fluconazole (antifungal) as reference drugs. DMSO was used to dissolve the reference and sample derivatives (T1–T20). Dilutions were prepared in nutrient broth (I.P.) for bacterial (incubated at 37 ± 1 °C for 24 h) and Sabouraud dextrose broth (I.P.) for fungal species (37 ± 1 °C for 48 h for C. albicans) and (25 ± 1 °C for 7 days for A. niger) (Table 3, Figs. 4 and 5).

Pseudomonas aeruginosa = assay: as above; format: cell-based; conditions: P. aeruginosa, Gram −ve, nutrient broth, 37 ± 1 °C, 24 h, read-out: Minimum inhibitory concentration
Experimental: as §1

Escherichia coli = assay: as above; format: cell-based; conditions: E. coli, Gram −ve, nutrient broth, 37 ± 1 °C, 24 h, read-out: Minimum inhibitory concentration
Experimental: as §1

Aspergillus niger = assay: In vitro antifungal screening, tube dilution method; format: cell-based; conditions: A. niger, Sabouraud dextrose broth, 25 ± 1 °C, 7 days, read-out: Minimum inhibitory concentration
Experimental: as §1

Candida albicans = assay: as above; format: cell-based; conditions: C. albican, Sabouraud dextrose broth, 37 ± 1 °C, 48 h, read-out: Minimum inhibitory concentration
Experimental: as §1

[3] = Homo sapiens, HCT-116, HCT116, 72 h, SRB, mean of at least triplicates
[4] = Homo sapiens, HCT-116, HCT116, value given in dose-response figure
[5] = HCT116, 72 h, SRB, mean of at least triplicates

Chain of Jack Bean Urease (P07374 whole entry, looked up): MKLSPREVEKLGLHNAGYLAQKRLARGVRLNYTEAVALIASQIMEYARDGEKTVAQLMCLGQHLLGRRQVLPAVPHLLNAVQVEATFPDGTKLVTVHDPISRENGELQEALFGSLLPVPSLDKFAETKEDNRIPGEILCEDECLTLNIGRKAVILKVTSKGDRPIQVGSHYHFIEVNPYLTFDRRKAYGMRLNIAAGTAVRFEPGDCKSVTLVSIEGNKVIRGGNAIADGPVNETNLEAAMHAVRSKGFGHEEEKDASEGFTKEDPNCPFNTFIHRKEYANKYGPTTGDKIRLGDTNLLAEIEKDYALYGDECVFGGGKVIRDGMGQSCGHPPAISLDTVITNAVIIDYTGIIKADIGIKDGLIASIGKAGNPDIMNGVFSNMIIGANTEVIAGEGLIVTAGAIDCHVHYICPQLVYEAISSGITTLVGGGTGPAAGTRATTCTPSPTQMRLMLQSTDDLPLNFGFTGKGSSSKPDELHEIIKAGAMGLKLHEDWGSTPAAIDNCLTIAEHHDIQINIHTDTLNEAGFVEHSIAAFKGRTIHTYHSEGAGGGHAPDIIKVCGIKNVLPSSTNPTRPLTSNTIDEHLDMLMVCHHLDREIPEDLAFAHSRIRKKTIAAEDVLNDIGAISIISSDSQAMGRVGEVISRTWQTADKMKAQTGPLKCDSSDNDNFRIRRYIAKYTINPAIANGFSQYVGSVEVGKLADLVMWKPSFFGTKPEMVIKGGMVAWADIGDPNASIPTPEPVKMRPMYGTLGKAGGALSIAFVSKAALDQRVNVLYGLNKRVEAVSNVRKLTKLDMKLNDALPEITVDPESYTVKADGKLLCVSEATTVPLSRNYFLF

With `CCCCCCCCCCCCCCCc1nnc(S)n1N=Cc1ccccc1O` [Compound T7] the IC50 (Jack Bean Urease) was 121 µM, the inhibition at 25 µg/mL (Jack Bean Urease) was 24% and the inhibition at 50 µg/mL (Jack Bean Urease) was 46.9%. The inhibition at 75 µg/mL (Jack Bean Urease) was 76.1%, the inhibition at 100 µg/mL (Jack Bean Urease) was 91.9% and the IC50 [1, 3] was 3.25 µM. For the same molecule, the IC50 [1, 4] was 1.4 mg/L, the IC50 [2] was 38.54 mg/L (≈ 89.5 µM) and the “% inhibition” value ([2]; 25 µg/ml) was 46.75%. The “% inhibition” value ([2]; 50 µg/ml) was 52.56%, the “% inhibition” value ([2]; 75 µg/ml) was 60.56% and the “% inhibition” value ([2]; 100 µg/ml) was 70.41%. For the same molecule, the melting point was 181 to 184 °C, the MIC (Bacillus subtilis; Bacillus subtilis) was 116 µM (≈ 50 µg/mL) and the MIC (Pseudomonas aeruginosa) was 29.0 µM (≈ 12.5 µg/mL). The MIC (Pseudomonas aeruginosa; Pseudomonas aeruginosa) was 29 µM (≈ 12.5 µg/mL), the MIC (Escherichia coli; Escherichia coli) was 116 µM (≈ 50 µg/mL) and the MIC (Aspergillus niger; Aspergillus niger, 168 h) was 232 µM (≈ 100 µg/mL). For the same molecule, the MIC (Candida albicans; Candida albicans) was 232 µM (≈ 100 µg/mL).
For `CCCCCCCCCCCCCCCc1nnc(S)n1N=Cc1cccc(Br)c1` [Compound T13], the IC50 (Jack Bean Urease) was 101 µM, the inhibition at 25 µg/mL (Jack Bean Urease) was 26.6% and the inhibition at 50 µg/mL (Jack Bean Urease) was 48.8%. It also gave an inhibition at 75 µg/mL (Jack Bean Urease) of 74%, an inhibition at 100 µg/mL (Jack Bean Urease) of 98.9% and an IC50 [1, 3] of over 203 µM. For the same molecule, the IC50 [2] was 36.40 mg/L (≈ 73.8 µM), the “% inhibition” value ([2]; 25 µg/ml) was 43.46% and the “% inhibition” value ([2]; 50 µg/ml) was 57.67%. The “% inhibition” value ([2]; 75 µg/ml) was 73.76%, the “% inhibition” value ([2]; 100 µg/ml) was 89.56% and the melting point was 197 to 200 °C. It also gave an MIC (Bacillus subtilis; Bacillus subtilis) of 101 µM (≈ 50 µg/mL), an MIC (Pseudomonas aeruginosa; Pseudomonas aeruginosa) of 203 µM (≈ 100 µg/mL) and an MIC (Escherichia coli; Escherichia coli) of 203 µM (≈ 100 µg/mL). The MIC (Aspergillus niger; Aspergillus niger, 168 h) was 203 µM (≈ 100 µg/mL) and the MIC (Candida albicans; Candida albicans) was 101 µM (≈ 50 µg/mL).
In the case of `CCCCCCCCCCCCCCCc1nnc(S)n1N=Cc1ccco1` [Compound T20], the IC50 (Jack Bean Urease; urease inhibition) is reported as 52.34 mg/L, the “% inhibition” value (Jack Bean Urease; 25 µg/ml) is reported as 28.98% and the “% inhibition” value (Jack Bean Urease; 50 µg/ml) is reported as 49.09%. For the same molecule, the “% inhibition” value (Jack Bean Urease; 75 µg/ml) was 69.09%, the “% inhibition” value (Jack Bean Urease; 100 µg/ml) was 81.90% and the IC50 [1, 5] was over 247 µM. The IC50 [2] was 46.34 mg/L (≈ 115 µM), the “% inhibition” value ([2]; 25 µg/ml) was 33.45% and the “% inhibition” value ([2]; 50 µg/ml) was 53.67%. The “% inhibition” value ([2]; 75 µg/ml) was 70.46%, the “% inhibition” value ([2]; 100 µg/ml) was 92.67% and the MIC (Bacillus subtilis) was 61.7 µM (≈ 25 µg/mL). The MIC (Pseudomonas aeruginosa) was 123.5 µM (≈ 50 µg/mL), the MIC (Escherichia coli) was 61.7 µM (≈ 25 µg/mL) and the MIC (Aspergillus niger) was 247.1 µM (≈ 100 µg/mL). The MIC (Candida albicans) was 247.1 µM (≈ 100 µg/mL).
For `CCCCCCCCCCCCCCCc1nnc(S)n1N=Cc1c(O)ccc2ccccc12` [Compound T18], the IC50 (Jack Bean Urease; urease inhibition) was 54.30 mg/L, the “% inhibition” value (Jack Bean Urease; 25 µg/ml) was 40.90% and the “% inhibition” value (Jack Bean Urease; 50 µg/ml) was 46.79%. The “% inhibition” value (Jack Bean Urease; 75 µg/ml) was 55.89%, the “% inhibition” value (Jack Bean Urease; 100 µg/ml) was 67.9% and the IC50 [1, 5] was over 208 µM. The “% inhibition” value ([2]; 25 µg/ml) was 39.59%, the “% inhibition” value ([2]; 50 µg/ml) was 68.57% and the “% inhibition” value ([2]; 75 µg/ml) was 80.13%. The “% inhibition” value ([2]; 100 µg/ml) was 95.89%, the MIC (Bacillus subtilis) was 104.0 µM (≈ 50 µg/mL) and the MIC (Pseudomonas aeruginosa) was 52.0 µM (≈ 25 µg/mL). For the same molecule, the MIC (Escherichia coli) was 104.0 µM (≈ 50 µg/mL), the MIC (Aspergillus niger) was 104 µM and 104.0 µM and the MIC (Candida albicans) was 208 µM and 208.0 µM.
With `OC(Cn1cncn1)(Cn1cncn1)c1ccc(F)cc1F` [Fluconazole, reference compound] the MIC (Aspergillus niger; Aspergillus niger, 168 h) was 20.4 µM (≈ 6.25 µg/mL) and the MIC (Candida albicans; Candida albicans) was 40.8 µM (≈ 12.5 µg/mL).
`O=c1[nH]cc(F)c(=O)[nH]1` [Compound 5-FU, Fluorouracil, reference compound] showed an IC50 [1, 3] of 25.4 µM and an IC50 [1, 4] of 3.3 mg/L.
For `CCCCCCCCCCCCCCCc1nnc(S)n1N=Cc1cc(OC)c(OC)c(OC)c1` [Compound T5], the IC50 (Jack Bean Urease) was 108 µM, the inhibition at 25 µg/mL (Jack Bean Urease) was 23.3% and the inhibition at 50 µg/mL (Jack Bean Urease) was 44.4%. The inhibition at 75 µg/mL (Jack Bean Urease) was 70.9%, the inhibition at 100 µg/mL (Jack Bean Urease) was 90.9% and the IC50 [1, 3] was over 198 µM. The IC50 [2] was 39.13 mg/L (≈ 77.5 µM), the “% inhibition” value ([2]; 25 µg/ml) was 42.34% and the “% inhibition” value ([2]; 50 µg/ml) was 55.67%. For the same molecule, the “% inhibition” value ([2]; 75 µg/ml) was 68.98%, the “% inhibition” value ([2]; 100 µg/ml) was 78.12% and the MIC (Bacillus subtilis; Bacillus subtilis) was 24.7 µM (≈ 12.5 µg/mL). For the same molecule, the MIC (Pseudomonas aeruginosa; Pseudomonas aeruginosa) was 12.3 µM (≈ 6.21 µg/mL), the MIC (Escherichia coli; Escherichia coli) was 24.7 µM (≈ 12.5 µg/mL) and the MIC (Aspergillus niger) was 99.0 µM (≈ 50 µg/mL). The MIC (Aspergillus niger; Aspergillus niger, 168 h) was 99 µM (≈ 50 µg/mL) and the MIC (Candida albicans; Candida albicans) was 12.3 µM (≈ 6.21 µg/mL).

Source: paper PMC7818921, “Synthesis and biological evaluation of heterocyclic 1,2,4-triazole scaffolds as promising pharmacological agents” (BMC Chemistry, 2021)
